Data on two compounds can be found in patent publication US20080306131A1, “Progesterone receptor modulator and uses thereof” (Wyeth, priority 2007, published 2008).

In this test the target is T1, progesterone receptors (PR) (Homo sapiens, UniProt P06401).
T1 sequence (P06401 1-933): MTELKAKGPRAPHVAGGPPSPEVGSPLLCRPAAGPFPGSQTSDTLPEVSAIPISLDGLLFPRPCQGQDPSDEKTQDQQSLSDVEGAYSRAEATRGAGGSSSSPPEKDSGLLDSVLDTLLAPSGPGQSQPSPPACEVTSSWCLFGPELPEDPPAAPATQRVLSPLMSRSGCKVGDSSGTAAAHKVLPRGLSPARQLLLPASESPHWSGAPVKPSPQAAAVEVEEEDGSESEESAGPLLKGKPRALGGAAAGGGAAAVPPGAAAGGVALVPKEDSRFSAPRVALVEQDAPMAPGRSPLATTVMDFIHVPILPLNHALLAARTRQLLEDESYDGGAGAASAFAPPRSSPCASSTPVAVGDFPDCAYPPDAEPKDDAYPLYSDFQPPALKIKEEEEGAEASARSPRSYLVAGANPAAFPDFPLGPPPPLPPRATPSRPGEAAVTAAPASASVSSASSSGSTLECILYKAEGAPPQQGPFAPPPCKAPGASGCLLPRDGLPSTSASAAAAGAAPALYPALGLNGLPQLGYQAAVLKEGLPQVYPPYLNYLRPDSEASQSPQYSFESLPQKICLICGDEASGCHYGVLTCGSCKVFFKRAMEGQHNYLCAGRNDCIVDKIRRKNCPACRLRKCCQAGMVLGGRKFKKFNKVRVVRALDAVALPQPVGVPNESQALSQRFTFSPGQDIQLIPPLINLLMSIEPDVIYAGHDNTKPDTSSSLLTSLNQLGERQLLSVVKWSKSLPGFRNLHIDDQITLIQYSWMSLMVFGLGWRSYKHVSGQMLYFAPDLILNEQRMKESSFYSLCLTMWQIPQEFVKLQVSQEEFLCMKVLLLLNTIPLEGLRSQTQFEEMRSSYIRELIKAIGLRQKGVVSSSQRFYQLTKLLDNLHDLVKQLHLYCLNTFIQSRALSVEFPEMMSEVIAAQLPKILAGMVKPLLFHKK
The test can be described thus: PRE luciferase reporter assay and Quantigene branched DNA assay (TF, PPL) for progestin activity in T47D cells. Type of test: cell-based. As to conditions: read-out: efficacies (percentage of the maximum P4 response). The protocol: Progestin activity was measured using a common luciferase reporter system in cells expressing endogenous progesterone receptors (PR). T47D breast cancer cells were plated at 50,000 cells/well in 96 well plates in DMEM/F-12 supplemented with penicillin/streptomycin, Glutamax and 5% FBS (Gibco). Cells were infected with a 1:1000 dilution of an adenovirus vector expressing luciferase under the control of three copies of a consensus progesterone receptor regulatory element (PRE) located in the promoter region. Following a two-hour post-infection recovery, cells were treated for 20 hours with progesterone (P4) or test compounds. Luciferase reporter activity was quantified using the Luciferase Assay System (Promega) and a Victor2 luminometer (Perkin Elmer).
T47D cells were plated as in the PRE assay and treated with compound for 15 hours. Expression of tissue factor (TF), a PR-β isoform regulated gene, or periplakin (PPL), a PR-A regulated gene, was measured by the Quantigene branched DNA assay (Genospectra) using the Victor2 luminometer following the manufacturer's recommended protocol.
EC50 values were determined using the dose response nonlinear fit model from the SAS statistics package (SAS Institute Inc). Efficacies were calculated as a percentage of the maximum P4 response.

Like-named read-outs stand apart in the source and are kept apart here.

Consider `CC1(C)C(=O)C=CC2(C)C3(C)c4[nH]c5ccccc5c4CC3CCC12O` (centres unmarked) [4a-hydroxy-4,4,12b,12c-tetramethyl-4a,5,6,6a,7,12,12b,12c-octahydrobenzo[6,7]indeno[1,2-b]indol-3(4H)-one], for which, where the note is “T47D”, the Emax was under 1%. In the case of `CO[C@H]1[C@H](O)[C@@H](O)[C@@H](Oc2ccc3c4c([nH]c3c2)[C@]2(C)[C@H](CC[C@@H]3C(C)(C)C(=O)C=C[C@]32C)C4)O[C@@H]1CO` [(4aS,6aR,12bR,12cR)-4,4,12b,12c-tetramethyl-3-oxo-3,4,4a,5,6,6a,7,12,12b,12c-decahydrobenzo[6,7]indeno[1,2-b]indol-10-yl 4-O-methyl-α-D-glucopyranoside], the Emax (T47D breast cancer cells, percentage of maximum progesterone (P4) response, the text does not say which assay (PRE luciferase, TF, PPL) each value comes from) is under 1%.
